Laboratory results as given in PMC6212786 (Nucleic Acids Research, 2018).

System: T4 DNA ligase
Test: blunt-end DNA ligation assay, effect on T4 DNA ligase
Assay type: biochemical, bacteriophage T4
Details: pH 7.5

gp45: T4 sliding clamp, trimeric processivity factor for DNA polymerase
stimulation of blunt-end ligation activity of T4 DNA ligase: did not stimulate
